Several values for one entry are separate records, joined by “and”; a condition that tells them apart may be missing. Identical values can stand only once. Like-named read-outs stand apart in the source and are kept apart here.
Tests used:
[1] = tested on: pFLuc-opal (UGA stop mutation); experiment: FLuc cell-based readthrough assay in HeLa FLuc-opal transfected cells; parameters: key to Pharm Set: Active: as active, compounds with FLUC values >4.52 (ATALUREN FLUC value); Inactive: as inactives, compounds with FLUC values ≤4.00; Moderate: as moderate actives, compounds with 4.39≤FLUC values ≤4,51; conditions: for Pharm Set: class of activity related to the FLUC values
Source text: The results disclosed in (Pibiri I., Lentini L., Tutone M., Melfi R., Pace A., Di Leonardo A. Exploring the readthrough of nonsense mutations by non-acidic Ataluren analogues selected by ligand-based virtual screening. Eur. J. Med. Chem. 122 (2016) 429-435) have been refined with 3D-QSAR (quantitative structure-activity relationships) pharmacophore modelling. The endpoint to build QSAR models was the luciferase activity known data. These values were converted to pFLUC (−log FLUC) values. In order to find the common pharmacophore hypothesis, we divided the 24 compounds in three different classes of activity related to the FLUC values (Pharm set). We considered as active, compounds with FLUC values >4.52 (ATALUREN FLUC value), as inactives, compounds with FLUC values ≤4.00, and as moderate actives, compounds with 4.39≤FLUC values ≤4,51. Dataset was randomly split into a training set (19 compounds) for models generation, and test set (5 compounds) for the validation of developed models, as reported in Table 1.
To ascertain the effectiveness of the newly synthesized ataluren analogues in promoting the readthrough of premature termination codons was used the FLuc cell-based assay. To this aim HeLa cells were transfected transiently with the plasmids pFLuc-wild type (control) and pFLuc-opal (UGA stop mutation) (NIH Chemical Genomics Center, National Institutes of Health, Bethesda, USA). FLuc gene expression was then measured by luminescence.

[2] = tested on: pFLuc-opal (UGA stop mutation); conditions: luciferase activity known data, converted to pFLUC (−log FLUC); literature [1], [2]; cited from earlier work
HeLa cells = experiment: Cytotoxic effects and impact on cell proliferation in HeLa cells; type: cell-based; conditions: 12 μM
Method: HeLa cells were used to determine the possible cytotoxic effects of our compounds and the impact on cell proliferation. In FIG. 7 are reported the percentages of dead cells and proliferating cells after treatment with 12 μM compounds and 12 μM ATALUREN.

Compound	Pharm Set [1]	RLU values Exp. [2]	dead cells (HeLa cells; 24 h) [%]	dead cells (HeLa cells; 72 h) [%]	RLU values Exp. ([1]; luciferase activity converted to pFLUC, [3] unpublished data)
O=C(O)c1cccc(-c2noc(-c3cc(F)c(F)cc3F)n2)c1 [Compound 5-NV1173, 3-(5-(2,4,5-Trifluorophenyl)-1,2,4-oxadiazol-3-yl)benzoic acid]	Active	4.788	–	–	–
COC(=O)c1cccc(-c2noc(-c3ccc(F)cc3)n2)c1 [Compound 6-NV1153]	Inactive	4.125	–	–	–
O=C(O)c1cccc(-c2noc(-c3ccccc3F)n2)c1 [ATALUREN, 3-(5-(2-Fluorophenyl)-1,2,4-oxadiazol-3-yl)benzoic acid]	Active	4.52 and 4.528	4	7	–
COC(=O)c1cccc(-c2noc(-c3ccc(F)c(F)c3)n2)c1 [Compound 9-NV1175, Methyl 3-(5-(3,4-difluorophenyl)-1,2,4-oxadiazol-3-yl)ben-zoate)]	Moderate (as moderate actives, compounds with 4.39≤FLUC values ≤4,51)	4.269	–	–	–
Cc1cccc(-c2nc(-c3ccccn3)no2)c1 [Compound 21-NV1898, 3-(2-pyridyl)-5-(3′-toluyl)-1,2,4-oxadiazole]	Active	4.551	–	–	–
COC(=O)c1cccc(-c2noc(-c3cc(F)c(F)cc3F)n2)c1 [Compound 4-NV1128, Methyl 3-(5-(2,4,5-trifluorophenyl)-1,2,4-oxadiazol-3-yl) benzoate)]	Moderate (as moderate actives, compounds with 4.39≤FLUC values ≤4,51)	4.397	–	–	–
COC(=O)c1cccc(-c2noc(-c3ccc(F)cc3F)n2)c1 [Compound 10-NV1171, Methyl 3-(5-(2,4-difluorophenyl)-1,2,4-oxadiazol-3-yl)ben-zoate)]	Moderate (as moderate actives, compounds with 4.39≤FLUC values ≤4,51)	4.439	–	–	–
Cc1cccc(-c2noc(-c3ccccc3F)n2)c1 [Compound 12-NV1798, 3-Toluyl, 5-(2-fluorophenyl)-1,2,4-oxadiazole]	Inactive	4.178	–	–	–
Cc1cccc(-c2nc(-c3cccnc3)no2)c1 [Compound 17-NV1879, 3-(3′-pyridyl)-5-(3′-toluyl)-1,2,4-oxadiazole]	Moderate (as moderate actives, compounds with 4.39≤FLUC values ≤4,51)	4.411	–	–	–
O=C(O)c1cccc(-c2noc(-c3c(F)c(F)c(F)c(F)c3F)n2)c1 [Compound 14-NV1954, 3-(5-(Perfluorophenyl)-1,2,4-oxadiazol-3-yl)benzoic acid]	Inactive	4.171	–	–	–
COC(=O)c1cccc(-c2noc(-c3c(F)cccc3F)n2)c1 [Compound 11-NV1174, Methyl 3-(5-(2,6-difluorophenyl)-1,2,4-oxadiazol-3-yl)ben-zoate)]	Moderate (as moderate actives, compounds with 4.39≤FLUC values ≤4,51)	4.414	–	–	–
COC(=O)c1cccc(-c2noc(-c3cccc(F)c3F)n2)c1 [Compound 8-NV1170, Methyl 3-(5-(2,3-difluorophenyl)-1,2,4-oxadiazol-3-yl)ben zoate)]	Moderate (as moderate actives, compounds with 4.39≤FLUC values ≤4,51)	4.311	–	–	–
COc1cccc(C(=O)c2nc(-c3ccncc3)no2)c1 [Compound 22-NV1919, 3-(4′-pyridyl)-5-(3′-anisoyl)-1,2,4-oxadiazole]	Moderate (as moderate actives, compounds with 4.39≤FLUC values ≤4,51)	4.253	–	–	–
Cc1cccc(-c2noc(-c3ccccc3C)n2)c1 [Compound 19-NV1894, 3-(3-toluyl), 5-(2-toluyl)-1,2,4-oxadiazole]	Moderate (as moderate actives, compounds with 4.39≤FLUC values ≤4,51)	4.250	–	–	–
Cc1cccc(-c2nc(-c3ccncc3)no2)c1 [Compound 16-NV1861, 3-(4′-pyridyl)-5-(3′-toluyl)-1,2,4-oxadiazole]	Moderate (as moderate actives, compounds with 4.39≤FLUC values ≤4,51)	4.250	–	–	–
COC(=O)c1cccc(-c2noc(-c3c(F)c(F)c(F)c(F)c3F)n2)c1 [Compound 13-NV1951]	Inactive	4.008	–	–	–
N#Cc1cccc(-c2nc(-c3ccccn3)no2)c1 [Compound 15-NV1859, 3-(2′-pyridyl)-5-(3′-cyanophenyl)-1,2,4-oxadiazole]	Moderate (as moderate actives, compounds with 4.39≤FLUC values ≤4,51)	4.363	–	–	–
Cc1cccc(-c2noc(-c3cccc(C)c3)n2)c1 [Compound 20-NV1905, 3-(3-toluyl), 5-(3-toluyl)-1,2,4-oxadiazole]	Inactive	–	–	–	4.181
Cc1cccc(-c2nc(-c3ccccc3)no2)c1 [Compound 18-NV1883, 3-(3′-phenyl)-5-(3′-toluyl)-1,2,4-oxadiazole]	Moderate (as moderate actives, compounds with 4.39≤FLUC values ≤4,51)	4.428	–	–	–
O=C(O)c1cccc(-c2noc(-c3cccc(F)c3)n2)c1 [Compound 3-NV1133, 3-(5-(3-Fluorophenyl)-1,2,4-oxadiazol-3-yl)benzoic acid]	Active	4.628	–	–	–
COC(=O)c1cccc(-c2noc(-c3cccc(F)c3F)n2)c1 [Compound 7-NV1149]	Inactive	4.103	–	–	–
COc1cccc(C(=O)c2nc(-c3ccccn3)no2)c1 [Compound 23-NV1940, 3-(2-pyridyl)-5-(3′-anisoyl)-1,2,4-oxadiazole]	Inactive	4.000	–	–	–
COC(=O)c1cccc(-c2noc(-c3cccc(F)c3)n2)c1 [Compound 2-NV1127]	Moderate (as moderate actives, compounds with 4.39≤FLUC values ≤4,51)	4.477	–	–	–
COC(=O)c1cccc(-c2noc(-c3ccccc3F)n2)c1 [Compound 1-NV1103]	Active	4.532	–	–	–

Reference: patent US11203578B2, “Oxadiazole derivatives for the treatment of genetic diseases due to nonsense mutations” (UNIVERSITA' DEGLI STUDI DIPALERMO, priority 2017, dated 2021)
